Data taken from ChEMBL document CHEMBL2407041, “Identification of potent Yes1 kinase inhibitors using a library screening approach” (Bioorg Med Chem Lett, 2013).

Key:
[1] = target: T1, Tyrosine-protein kinase Yes (Homo sapiens, UniProt P07947); assay: Inhibition of Yes1 (unknown origin) assessed as kinase-dependent enzymatic production of ADP from ATP using coupled luminescence-based reaction by ADP-Glo kinase assay
[2] = target: T1, Tyrosine-protein kinase Yes; assay: Inhibition of Yes1 (unknown origin) by [gamma-33P]-ATP radiolabeled enzyme activity assay
[3] = Antiproliferative activity against human Rh30 cells after 48 hrs by CellTiter-Glo luminescent assay; conditions: SJRH30, 48 h
RD = assay: Antiproliferative activity against human RD cells after 48 hrs by CellTiter-Glo luminescent assay

T1 sequence (P07947 whole entry): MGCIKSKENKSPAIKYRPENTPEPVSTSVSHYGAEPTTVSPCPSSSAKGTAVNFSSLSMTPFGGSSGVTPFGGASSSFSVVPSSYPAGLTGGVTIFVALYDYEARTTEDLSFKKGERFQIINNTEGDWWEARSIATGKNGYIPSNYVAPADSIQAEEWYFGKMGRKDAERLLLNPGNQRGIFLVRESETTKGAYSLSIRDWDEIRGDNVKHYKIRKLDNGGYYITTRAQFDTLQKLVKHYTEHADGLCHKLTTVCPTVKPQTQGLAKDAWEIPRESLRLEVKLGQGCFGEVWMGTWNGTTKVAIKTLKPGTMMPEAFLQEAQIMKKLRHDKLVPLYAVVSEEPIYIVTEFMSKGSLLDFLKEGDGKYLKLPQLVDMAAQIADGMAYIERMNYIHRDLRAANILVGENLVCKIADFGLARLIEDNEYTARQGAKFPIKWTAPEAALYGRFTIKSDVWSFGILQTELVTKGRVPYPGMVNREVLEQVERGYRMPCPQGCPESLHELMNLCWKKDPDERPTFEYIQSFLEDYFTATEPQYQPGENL

Question: Which results are given for `CN1CCC(CNc2ccc3ncc(-c4cccc(OC(F)(F)F)c4)n3n2)CC1` [SGI-1776]?
Answer: IC50 [1]: 2670 nM; IC50 [2]: 240 nM

Question: With `c1cc(-c2cnn3cc(-c4ccc(OCCN5CCCCC5)cc4)cnc23)ccn1` [DORSOMORPHIN] as the compound, how does the IC50 [1] read?
Answer: 196 nM

Question: What about the IC50 [2] of the same compound?
Answer: 29.8 nM

Question: What does the source list for `CC(C)Oc1cc(Nc2nc(N[C@@H](C)c3ccc(F)cn3)ncc2Cl)n[nH]1`?
Answer: IC50 [3]: 1800 nM; IC50 [1]: 39.1 nM; IC50 [2]: 3 nM; IC50 (RD): 5300 nM
